According to patent publication US7235263B2, “Processes for controlling microbial organic compound production” (Kimberly-Clark Worldwide, Inc., priority 2001, dated 2007):

Legend:
interleukin-8 (IL-8) = experiment: IL-8 release by EPIOCULAR skin culture challenged with sample; assay type: cell-based, human; conditions: for IL-8: Table 5, 6 hours; for IL-8 (n = 3): Table 6
From the text: (§1) In order to evaluate the amount of skin irritation by various samples prepared in the Examples, a human skin culture was selected to model the response of the human epidermis to treated and untreated bacterial metabolized urine:TSB mixture. The tissue model selected was an EPIOCULAR Tissue Model (OCL-200 propagated without hydrocortisone), and was purchased from MatTek Corporation (Ashland, Mass.). This model consists of normal, human-derived epidermal keratinocytes, which have been cultured to form a stratified, squamous epithelium similar to that found in the cornea. The epidermal cells, which are cultured on specially prepared cell culture inserts using a serum free medium, differentiate to form a multi-layered structures which closely parallel the corneal epithelium. Experiments using this skin culture were conducted in six parallel wells. Each well contained one milliliter of pre-warmed media that was the same as the model skin culture media. The plates were then incubated in a 37° C., 5% carbon dioxide atmosphere for thirty minutes. After incubation, 25 microliters of the sample were applied to the surface of the model skin culture after removing any residual media. After application of the test solution, the well plates were incubate for 6 hours in the 37° C., 5% carbon dioxide atmosphere. At the end of 6 hours, the well plates were removed from the incubator and the underlying media removed and stored at −80° C. The response of the skin culture to test the compositions/control and the insult solution is determined by measuring the amount of interleukin-1 alpha (IL-1a) and/or interleukin-8 (IL-8). IL-1a and IL-8 were quantified using an Interleukin-1 alpha or Interleukin-8 Quantikine Kit available from R&D Systems (Minneapolis, Minn.).

Proteus mirabilis = experiment: Growth of aerobically cultivated Proteus mirabilis in urine:TSB, microtiter serial dilution, optical density; assay type: cell-based; conditions: for optical density (bacterial cell growth): 48 hours at 37° C., aerobic, listed as 7 Hr.
Experimental: Proteus mirabilis was cultured in TSB as described in Example 1 and transferred to a urine:TSB mixture (9:1) and incubated under aerobic conditions as described in Example 1. […] In a 96-well microtiter plate with a lid, 150 microliters of each 10% solution was introduced into the first and second columns of the wells. Using a multi-channel pipette, 150 microliters of urine:TSB mixture was introduced into each well except the first column. Beginning at the second column of wells, serial dilutions were made by removing 150 microliters from the second column and transferring it to the third column. The mixture was mixed by pipetting up and down three times. The serial dilutions continued across each column of the plate and, after column 11, 150 microliters was discarded leaving column 12 as the 0% solution. Each well was then inoculated with 1 microliter of Proteus mirabilis, except for the negative control rows. One to three drops of anti-fogging solution was place on the plate lids with a cotton applicator, and allowed to air dry. The mixtures were incubated for 48 hours at 37° C. under aerobic conditions. After incubation of the samples, each was analyzed for bacterial cell growth utilizing the optical density procedure as set forth in Example 1.

[1] = tested on: interleukin-1 alpha (IL-1a); experiment: IL-1a release by EPIOCULAR skin culture challenged with sample; assay type: cell-based, human; conditions: Table 5, 6 hours
From the text: as §1, with “After incubation, 25 microliters of the sample were applied to the surface of the model skin culture after removing any residual media. After application of the test solution, the well plates were incubate for 6 hours in the 37° C., 5% carbon dioxide atmosphere. At the end of 6 hours, the well plates were removed from the incubator and the underlying media removed and stored at −80° C.” left out

[2] = tested on: Proteus mirabilis (ATCC 29906); experiment: Bacterial yield of facultatively grown Proteus mirabilis in urine:TSB (from optical density); assay type: cell-based; conditions: for Bacterial Yields: facultative
Experimental: Proteus mirabilis (ATCC 29906) were recovered from frozen state by growing the appropriate bacterial coated MicroBank Bead (Pro Lab, Austin Tex.) in 10 mL trypticase soy broth (TSB, Difco, Ann Arbor, Mich.) in a 15 mL sterile loosely tightened screw capped conical tube overnight at 37° C. The tube was held stationary. (E. coli (ATCC 8739), utilized in Example 6 herein, was recovered using the same procedure described herein for Proteus mirabilis). Upon observation of turbidity, the bacterial suspension was checked for purity by isolation plate and Gram stain. Once determined that the isolate was Proteus mirabilis (or E. coli in Example 6), a colony from the isolation plate was transferred to 10 mL of TSB in a 15 mL sterile screw capped conical tube and incubated overnight at 37° C. under facultative conditions. Samples of bacterial suspension resulting from this overnight TSB culture were used to initiate all experiments utilizing Proteus mirabilis bacteria (or E. coli in Example 6).
Proteus mirabilis was taken from a TSB culture (described in (1) above) and grown under various conditions for use in the Examples. For bacteria to be grown under aerobic conditions, 50 microliters of Proteus mirabilis was taken from a TSB culture prepared as described above and inoculated into a 50 mL volume of a freshly made 9:1 (by volume) pooled adult female urine:TSB mixture into a 250 mL shake flask. This mixture was rotated at 250 rpm at 37° C. overnight to grow the bacteria. For bacteria to be grown under facultative conditions, 10 microliters of Proteus mirabilis was taken from a TSB culture prepared as described above and inoculated into a 10 mL volume of a freshly made 9:1 (by volume) pooled adult female urine:TSB mixture into a 15 mL tube. The tube was loosely fitted with a screw cap, and held stationary at 37° C. overnight to grow the bacteria. For bacteria to be grown under anaerobic conditions, 10 microliters of Proteus mirabilis was taken from a TSB culture prepared as described above and inoculated into a 10 mL volume of a freshly made 9:1 (by volume) pooled adult female urine:TSB mixture into a 15 mL conical tube. The tube was purged with nitrogen and a screw cap tightly closed, and then was held stationary overnight at 37° C. to grow the bacteria.
In this Example, five samples were prepared and analyzed to determine: (1) Bacterial Yield (CFU/mL) calculated from optical density; (3) Percent viability of EPIOCULAR; and (4) EPIOCULAR IL-8. The samples included: (1) Deionized Water; (2) A urine:TSB mixture (9:1 by volume) as described above; (3) A urine:TSB mixture containing Proteus mirabilis bacteria grown under aerobic conditions as described above; (4) A urine:TSB mixture containing Proteus mirabilis bacteria grown under facultative conditions as described above; and (5) A urine:TSB mixture containing Proteus mirabilis bacteria grown under anaerobic conditions as described above.
In this Example, six different samples were prepared for analysis. The first sample comprised a urine:TSB mixture that was prepared in the same manner as that described in Example 1. […] The tube was loosely fitted with a screw cap, and held stationary at 37° C. overnight to grow the bacteria. […] The fifth sample comprising urine:TSB:Proteus mirabilis (facultatively grown) was prepared in the same manner as that described in Example 1.

[3] = facultative Proteus mirabilis grown with 5% mannitol peroxide
[4] = facultative Proteus mirabilis grown with 10% mannitol peroxide

mannitol peroxide
IL-8 (interleukin-8 (IL-8); [3]): 27224.30 ± 2432.83 pg/mL
IL-8 (interleukin-8 (IL-8); [4]): 15884.57 ± 839.53 pg/mL
IL-8 (n = 3) (interleukin-8 (IL-8); facultative E. coli grown with 5% MP): 1769.31 ± 103.9 pg/mL
IL-8 (n = 3) (interleukin-8 (IL-8); facultative E. coli grown with 10% MP): 1336.69 ± 60.84 pg/mL
optical density (bacterial cell growth) (Proteus mirabilis; 0.0097% in urine:TSB): 0.98
optical density (bacterial cell growth) (Proteus mirabilis; 0.0195% in urine:TSB): 0.98
optical density (bacterial cell growth) (Proteus mirabilis; 0.0391% in urine:TSB): 0.95
optical density (bacterial cell growth) (Proteus mirabilis; 0.0785% in urine:TSB): 0.98
optical density (bacterial cell growth) (Proteus mirabilis; 0.156% in urine:TSB): 1.00
optical density (bacterial cell growth) (Proteus mirabilis; 0.313% in urine:TSB): 0.96
optical density (bacterial cell growth) (Proteus mirabilis; 0.625% in urine:TSB): 0.99
optical density (bacterial cell growth) (Proteus mirabilis; 1.25% in urine:TSB): 0.98
optical density (bacterial cell growth) (Proteus mirabilis; 2.5% in urine:TSB): 0.97
optical density (bacterial cell growth) (Proteus mirabilis; 5% in urine:TSB): 0.90
optical density (bacterial cell growth) (Proteus mirabilis; 10% in urine:TSB): 0.82
effect on the growth of the bacteria (Proteus mirabilis; heated at least about 7 hours at about 97° C. during synthesis, even at elevated concentrations): little effect on the growth of the bacteria
IL-1a [1, 3]: 48.12 ± 8.93 pg/mL
IL-1a [1, 4]: 15.26 ± 12.80 pg/mL
impact on the growth of the cells ([2]; 5% and 10% mannitol peroxide, facultative Proteus mirabilis (Table 4)): very little, if any, impact on the growth of the cells
Bacterial Yields ([2]; Table 3, 5% (w/v) mannitol peroxide, urine:TSB, 37° C. overnight): 1.30E+9 CFU/mL
Bacterial Yields ([2]; Table 3, 10% mannitol peroxide, urine:TSB, 37° C. overnight): 8.20E+8 CFU/mL
Bacterial Yields ([2]; Table 4, 5% mannitol peroxide): 1.30E+9 CFU/mL
Bacterial Yields ([2]; Table 4, 10% mannitol peroxide): 8.2E+8 CFU/mL
Bacterial Yields ([2]; Table 5, 5% (w/v) mannitol peroxide): 1.30E+9 CFU/mL
Bacterial Yields ([2]; Table 5, 10% (w/v) mannitol peroxide): 8.20E+8 CFU/mL
Bacterial Yields ([2]; Table 7, 5% mannitol peroxide): 8.93E+8 CFU/mL
